From publication PMC6338342 (Journal of chromatography. B, Analytical technologies in …, 2016)
Read-outs that look alike come from different tables or passages of the source.

Key:
[1] = rat, in vivo, po
3T3-L1 cells = assay: Adipocyte differentiation and Oil Red O staining; format: cell-based; conditions: 1 or 10 μM, Oil Red O staining on day 8
UMR 106 cells = assay: Alkaline phosphatase; format: cell-based; conditions: 0.01, 0.1, 1 μM, 48 h
UMR106 cells = assay: MTT cell proliferation assay; format: cell-based; conditions: 0.01, 0.1, 1, 10 μM, 24 h
in vivo = conditions: male, Sprague-Dawley, rat, po
[2] = male, Sprague-Dawley, rat, in vivo, po, 3 g/kg
[3] = male, Sprague-Dawley, rat, in vivo, po, 6 g/kg
[4] = male, Sprague-Dawley, rat, in vivo, po, 12 g/kg
[5] = male, Sprague-Dawley, rat, serum, po, 3 g/kg
[6] = male, Sprague-Dawley, rat, serum, po, 6 g/kg
[7] = male, Sprague-Dawley, rat, serum, po, 12 g/kg
[8] = rat serum, oral XLGB extract 3 g/kg, n = 6
[9] = rat serum, oral XLGB extract 6 g/kg, n = 6
[10] = rat serum, oral XLGB extract 12 g/kg, n = 6

Compound: CC1(C)CC[C@]2(C(=O)O[C@@H]3O[C@H](CO[C@@H]4O[C@H](CO)[C@@H](O)[C@H](O)[C@H]4O)[C@@H](O)[C@H](O)[C@H]3O)CC[C@]3(C)C(=CC[C@@H]4[C@@]5(C)CC[C@H](O[C@@H]6OC[C@H](O)[C@H](O)[C@H]6O)[C@@](C)(CO)[C@@H]5CC[C@]43C)[C@@H]2C1 [Akebia saponin D, akebia saponin D]
- AUC0–∞ ([1]; 6 g/kg): 756.83 ± 140.72 ng·h/mL
- AUC(0-t) ([1]; 6 g/kg): 731.52 ± 131.54 ng·h/mL
- MRT0–t ([1]; 6 g/kg): 2.41 ± 0.25 h
- MRT0–∞ ([1]; 6 g/kg): 2.63 ± 0.25 h
- AUC0–∞ ([1]; 12 g/kg): 2658.47 ± 241.31 ng·h/mL
- AUC(0-t) ([1]; 12 g/kg): 2642.49 ± 233.18 ng·h/mL
- MRT0–t ([1]; 12 g/kg): 5.03 ± 0.32 h
- MRT0–∞ ([1]; 12 g/kg): 5.91 ± 0.50 h

Compound: COc1ccc(-c2oc3c(CC=C(C)C)c(O[C@@H]4O[C@H](CO)[C@@H](O)[C@H](O)[C@H]4O)cc(O)c3c(=O)c2O[C@@H]2O[C@@H](C)[C@H](O)[C@@H](O)[C@H]2O[C@@H]2O[C@@H](C)[C@H](O)[C@@H](O)[C@H]2O)cc1 [Epimedin C, epimedin C]
- AUC0–∞ ([1]; 3 g/kg): 69.33 ± 37.54 ng·h/mL
- AUC(0-t) ([1]; 3 g/kg): 21.70 ± 3.40 ng·h/mL
- MRT0–t ([1]; 3 g/kg): 1.41 ± 1.01 h
- MRT0–∞ ([1]; 3 g/kg): 20.72 ± 19.70 h
- AUC0–∞ ([1]; 6 g/kg): 1365.29 ± 80.31 ng·h/mL
- AUC(0-t) ([1]; 6 g/kg): 1361.31 ± 79.46 ng·h/mL
- MRT0–t ([1]; 6 g/kg): 1.45 ± 0.08 h
- MRT0–∞ ([1]; 6 g/kg): 1.47 ± 0.08 h
- AUC0–∞ ([1]; 12 g/kg): 4527.69 ± 474.54 ng·h/mL
- AUC(0-t) ([1]; 12 g/kg): 4397.49 ± 435.63 ng·h/mL
- MRT0–t ([1]; 12 g/kg): 3.07 ± 0.63 h
- MRT0–∞ ([1]; 12 g/kg): 5.10 ± 4.50 h

Compound: O=c1ccc2ccc3occc3c2o1 [Isopsoralen, isopsoralen]
- AUC(0-inf) [2]: 2470 ± 494 ng·h/mL
- AUC(0-t) [2]: 2390 ± 460 ng·h/mL
- Cmax [2]: 270 ± 35 ng/mL
- MRT inf [2]: 8.73 ± 3.76 h
- MRT last [2]: 7.49 ± 2.83 h
- Tmax [2]: 3.5 ± 2.49 h
- half-life [2]: 6.88 ± 4.89 h
- AUC(0-t) [3]: 15100 ± 1290 ng·h/mL
- Cmax [3]: 1140 ± 100 ng/mL
- MRT inf [3]: 12.2 ± 0.75 h
- MRT last [3]: 11.7 ± 0.83 h
- Tmax [3]: 3.67 ± 0.52 h
- half-life [3]: 6.78 ± 1.09 h
- AUC(0-inf) [4]: 19900 ± 2020 ng·h/mL
- AUC(0-t) [4]: 19400 ± 2000 ng·h/mL
- Cmax [4]: 1240 ± 72.2 ng/mL
- MRT inf [4]: 14.2 ± 1.43 h
- MRT last [4]: 13.3 ± 0.43 h
- Tmax [4]: 1.67 ± 0.41 h
- half-life [4]: 6.86 ± 3.44 h

Compound: COc1ccc2c(c1O)-c1c(O)c(OC)cc3c1[C@H](C2)[N+](C)(C)CC3 [Magnoflorine, magnoflorine]
- AUC(0-inf) [5]: 320 ± 96.9 ng·h/mL
- AUC(0-t) [5]: 264 ± 76.2 ng·h/mL
- Cmax [5]: 31.8 ± 4.77 ng/mL
- MRT inf [5]: 26.2 ± 8.51 h
- MRT last [5]: 16.4 ± 4.54 h
- Tmax [5]: 0.5 h
- half-life [5]: 20 ± 8.43 h
- AUC(0-inf) [6]: 4610 ± 572 ng·h/mL
- AUC(0-t) [6]: 2600 ± 249 ng·h/mL
- Cmax [6]: 652 ± 64.6 ng/mL
- MRT inf [6]: 44.4 ± 6.88 h
- MRT last [6]: 17.3 ± 0.63 h
- Tmax [6]: 0.67 ± 0.26 h
- half-life [6]: 21.8 ± 4.2 h
- AUC(0-inf) [7]: 3480 ± 121 ng·h/mL
- AUC(0-t) [7]: 3330 ± 130 ng·h/mL
- Cmax [7]: 1160 ± 102 ng/mL
- MRT inf [7]: 9.43 ± 0.47 h
- MRT last [7]: 6.67 ± 0.32 h
- Tmax [7]: 1.67 ± 0.26 h
- half-life [7]: 13.4 ± 0.75 h

Compound: CC(C)=CCc1cc(-c2coc3cc(O)ccc3c2=O)ccc1O [Neobavaisoflavone, neobavaisoflavone]
- AUC(0-inf) [5]: 7.24 ± 6.25 ng·h/mL
- AUC(0-t) [5]: 2.1 ± 0.78 ng·h/mL
- Cmax [5]: 1.46 ± 0.38 ng/mL
- MRT last [5]: 1.57 ± 0.81 h
- Tmax [5]: 0.5 h
- half-life [5]: 6.28 ± 7.25 h
- AUC(0-inf) [6]: 60.6 ± 41 ng·h/mL
- AUC(0-t) [6]: 41.1 ± 19 ng·h/mL
- Cmax [6]: 10.7 ± 0.59 ng/mL
- MRT inf [6]: 19.3 ± 20.7 h
- MRT last [6]: 9.13 ± 9.19 h
- Tmax [6]: 0.58 ± 0.2 h
- half-life [6]: 11.2 ± 9.11 h
- AUC(0-inf) [7]: 127 ± 32.3 ng·h/mL
- AUC(0-t) [7]: 110 ± 30.3 ng·h/mL
- Cmax [7]: 18.4 ± 5.4 ng/mL
- MRT inf [7]: 17.2 ± 9.5 h
- MRT last [7]: 8.79 ± 2.43 h
- half-life [7]: 16.2 ± 10.3 h

Compound: O=c1ccc2cc3ccoc3cc2o1 [Psoralen, psoralen]
- AUC(0-inf) [5]: 2810 ± 701 ng·h/mL
- AUC(0-t) [5]: 2740 ± 682 ng·h/mL
- Cmax [5]: 290 ± 23.3 ng/mL
- MRT inf [5]: 8.4 ± 2.93 h
- MRT last [5]: 7.55 ± 2.44 h
- Tmax [5]: 4.5 ± 1.22 h
- half-life [5]: 6.39 ± 3.73 h
- AUC(0-inf) [6]: 18500 ± 529 ng·h/mL
- AUC(0-t) [6]: 18300 ± 511 ng·h/mL
- Cmax [6]: 1380 ± 150 ng/mL
- MRT inf [6]: 12.2 ± 0.9 h
- MRT last [6]: 11.8 ± 0.99 h
- Tmax [6]: 2.92 ± 1.28 h
- half-life [6]: 6.78 ± 1 h
- AUC(0-inf) [7]: 28400 ± 877 ng·h/mL
- AUC(0-t) [7]: 28300 ± 899 ng·h/mL
- Cmax [7]: 1910 ± 118 ng/mL
- MRT inf [7]: 13.3 ± 1.18 h
- MRT last [7]: 13.2 ± 1.14 h
- half-life [7]: 4.2 ± 0.42 h

Compound: CC(C)=CCc1cc2c(cc1O)oc(=O)c1c3ccc(O)cc3oc21 [Psoralidin, psoralidin]
- effect on adipogenesis of 3T3-L1 cells (3T3-L1 cells): obviously inhibited adipocyte formation
- AUC0–∞ ([1]; 6 g/kg): 11.58 ± 0.94 ng·h/mL
- AUC(0-t) ([1]; 6 g/kg): 8.80 ± 1.38 ng·h/mL
- MRT0–t ([1]; 6 g/kg): 1.78 ± 0.36 h
- MRT0–∞ ([1]; 6 g/kg): 3.13 ± 0.36 h
- AUC0–∞ ([1]; 12 g/kg): 34.27 ± 16.04 ng·h/mL
- AUC(0-t) ([1]; 12 g/kg): 27.78 ± 13.97 ng·h/mL
- MRT0–t ([1]; 12 g/kg): 2.05 ± 0.45 h
- MRT0–∞ ([1]; 12 g/kg): 2.78 ± 0.68 h

Compound: C=C[C@H]1[C@H](O[C@@H]2O[C@H](CO)[C@@H](O)[C@H](O)[C@H]2O)OC=C2C(=O)OCC[C@H]21 [Sweroside, sweroside]
- effect on alkaline phosphatase (ALP) activity of UMR 106 cells (UMR 106 cells): excellent bioactivities
- effect on adipogenesis of 3T3-L1 cells (3T3-L1 cells): excellent bioactivities
- effect on proliferation of UMR 106 cells (UMR106 cells): excellent bioactivities
- AUC(0-inf) (in vivo; 3 g/kg): 452 ± 50.3 ng·h/mL
- AUC(0-t) (in vivo; 3 g/kg): 313 ± 39.1 ng·h/mL
- Cmax (in vivo; 3 g/kg): 35.6 ± 2.27 ng/mL
- MRT inf (in vivo; 3 g/kg): 31.7 ± 4.64 h
- Tmax (in vivo; 3 g/kg): 1.17 ± 0.26 h
- half-life (in vivo; 3 g/kg): 21.3 ± 3.33 h
- AUC(0-inf) (in vivo; 6 g/kg): 690 ± 110 ng·h/mL
- AUC(0-t) (in vivo; 6 g/kg): 598 ± 59.4 ng·h/mL
- Cmax (in vivo; 6 g/kg): 135 ± 10.2 ng/mL
- MRT inf (in vivo; 6 g/kg): 16.7 ± 7.3 h
- MRT last (in vivo; 6 g/kg): 8.31 ± 2.11 h
- half-life (in vivo; 6 g/kg): 13.8 ± 7.36 h
- AUC(0-inf) (in vivo; 12 g/kg): 1330 ± 97.9 ng·h/mL
- AUC(0-t) (in vivo; 12 g/kg): 1150 ± 35.3 ng·h/mL
- Cmax (in vivo; 12 g/kg): 301 ± 19.4 ng/mL
- MRT inf (in vivo; 12 g/kg): 19.2 ± 6.86 h
- MRT last (in vivo; 12 g/kg): 8.25 ± 0.83 h
- Tmax (in vivo; 12 g/kg): 0.5 h
- half-life (in vivo; 12 g/kg): 23.7 ± 12.3 h

Compound: bavachinin
- AUC0–∞ [8]: 53.60 ± 27.93 ng·h/mL
- AUC(0-t) [8]: 31.63 ± 11.39 ng·h/mL
- Cmax [8]: 10.25 ± 2.84 ng/mL
- MRT0–t [8]: 6.26 ± 4.26 h
- MRT0–∞ [8]: 18.47 ± 15.68 h
- Tmax [8]: 0.50 ± 0 h
- t1/2 [8]: 11.51 ± 9.48 h
- AUC0–∞ [9]: 406.85 ± 56.64 ng·h/mL
- AUC(0-t) [9]: 346.62 ± 36.95 ng·h/mL
- Cmax [9]: 20.41 ± 2.63 ng/mL
- MRT0–t [9]: 19.50 ± 3.03 h
- MRT0–∞ [9]: 28.15 ± 8.89 h
- Tmax [9]: 1.25 ± 1.04 h
- t1/2 [9]: 19.08 ± 8.31 h
- AUC0–∞ [10]: 379.76 ± 59.32 ng·h/mL
- AUC(0-t) [10]: 343.30 ± 61.62 ng·h/mL
- Cmax [10]: 36.00 ± 4.29 ng/mL
- MRT0–t [10]: 13.56 ± 2.69 h
- MRT0–∞ [10]: 18.40 ± 3.38 h
- Tmax [10]: 1.58 ± 0.38 h
- t1/2 [10]: 12.57 ± 3.06 h

Compound: corylin
- AUC0–∞ ([1]; 3 g/kg): 86.37 ± 67.67 ng·h/mL
- AUC(0-t) ([1]; 3 g/kg): 10.62 ± 3.66 ng·h/mL
- MRT0–t ([1]; 3 g/kg): 5.60 ± 5.20 h
- MRT0–∞ ([1]; 3 g/kg): 51.11 ± 29.69 h
- AUC0–∞ ([1]; 6 g/kg): 227.72 ± 52.75 ng·h/mL
- AUC(0-t) ([1]; 6 g/kg): 166.50 ± 26.45 ng·h/mL
- MRT0–t ([1]; 6 g/kg): 16.55 ± 4.24 h
- MRT0–∞ ([1]; 6 g/kg): 33.27 ± 11.40 h
- AUC0–∞ ([1]; 12 g/kg): 442.39 ± 107.76 ng·h/mL
- AUC(0-t) ([1]; 12 g/kg): 386.15 ± 84.00 ng·h/mL
- MRT0–t ([1]; 12 g/kg): 14.73 ± 1.76 h
- MRT0–∞ ([1]; 12 g/kg): 20.65 ± 3.78 h
